Article PMC8199124, “Design, Synthesis and In-Vitro Biological Evaluation of Antofine and Tylophorine Prodrugs as Hypoxia-Targeted Anticancer Agents” (Molecules, 2021)
Like-named read-outs stand apart in the source and are kept apart here.

How the values were obtained:
[1] = Solubility in PBS (pH 7.4); type: physicochemical; settings: aqueous buffer, mean ± SE
Description: (§1) Water solubility, logD, and PAMPA-BBB were evaluated using the protocols we previously described.

[2] = LogD determination; type: physicochemical; settings: mean ± SE
Description: as §1

[3] = BBB-Parallel Artificial Membrane Permeability Assay (BBB-PAMPA); type: in vitro ADME; settings: mean ± SE
Description: The physicochemical properties of the new compounds were evaluated (Table 1). […] Consequently, these derivatives lost their BBB penetrability, as predicted by the BBB-Parallel Artificial Membrane Permeability Assay (BBB-PAMPA), whereas their parent alkaloids had free passage through the BBB.
as §1

[4] = Plasma protein binding (PPB); type: in vitro ADME; settings: mean ± SE, read-out: PPB (% of Bound Compound) (converted)
Description: The physicochemical properties of the new compounds were evaluated (Table 1).

[5] = Mouse plasma stability test; type: in vitro ADME; settings: 37 °C, up to 24 h, read-out: t1/2 (Mouse Plasma) (converted)
Description: (§2) Incubations were carried out in 6 aliquots of 70 μL each in duplicates. […] The reactions were stopped by adding 350 μL of acetonitrile with subsequent plasma proteins sedimentation by centrifuging at 5500 rpm for 5 min. Supernatants were analyzed by LC-MS using Shimadzu VP HPLC system including vacuum degasser, gradient pumps, reverse phase column, column oven and autosampler. The HPLC system was coupled with tandem mass spectrometer API 3000 (PE Sciex, Foster City, CA, USA). Both the positive and negative ion modes of the TurboIonSpray ion source were used. The acquisition and analysis of the data were performed using Analyst 1.5.2 software (PE Sciex, API 3000 mass spectrometer, Foster City, CA, USA). The percentage of the test compounds remaining after incubation in plasma and their half-lives (T1/2) were calculated.

[6] = Human plasma stability test; type: in vitro ADME; settings: 37 °C, up to 24 h, read-out: t1/2 (Human Plasma) (converted)
Description: as §2

[7] = in vitro; settings: male, Balb/c, mouse, pH 7.4
Description: Mouse hepatic microsomes were isolated from pooled, perfused livers of Balb/c male mice according to the standard protocol. […] Microsomal incubations were carried out in 96-well plates in 5 aliquots of 40 μL each. […] Control incubations were performed by replacing the NADPH-cofactor system with PBS. The additional control incubations in PBS (with 3.3 mM MgCl2) without added microsomes were carried out in this study. […] The incubations were performed in duplicates. Five time points over 40 min had been analyzed. The reactions were stopped by adding 12 volumes of 90% acetonitrile-water to incubation aliquots, followed by protein sedimentation by centrifuging at 5500 rpm for 3 min. The supernatants were analyzed using LC-MS as mentioned above.

[8] = system: HEK293; test: Cytotoxicity (MTT) under normoxia, HEK293; type: cell-based; settings: Homo sapiens, HEK293, read-out: IC50 HEK293
Description: (§3) The cytotoxicity of the compounds 5a–c and their parent alkaloids was evaluated by the 3-[4,5-dimethylthiazole-2-yl]-2,5-diphenyltetrazolium bromide (MTT) assay against 5 cancerous and 2 non-cancerous cell lines (Table 4).
(§4) The eight cell lines HEK293 (Human embryonic kidney 293), CHO-K1 (Chinese hamster ovary K1), MCF-7 cells (Human breast adenocarcinoma), HCT116 (human colorectal carcinoma), RKO (Human rectal carcinoma), SW480 (human colorectal carcinoma), H460 (Human lung cancer), and MRC5 (Normal human foetal lung fibroblast), were obtained from the ATCC. The cell lines were routinely grown in alpha minimum essential medium (α-MEM) containing 5% foetal calf serum (FCS). The appropriate number of cells (HCT116 = 400 cells/well, H460 cells = 600 cells/well) were seeded into 96-well plates under normoxic or hypoxic conditions. Cells were plated in 100 µL α-MEM containing 10% FCS, 10mM D-Glucose and 0.2mM 2′-deoxycytidine. After incubation for 2 h, the compounds were added at the appropriate concentration and incubated for further 4 h. The cells were then washed three times with drug-free α-MEM (containing 5% FCS and pen/strep). The plates were then incubated for 5 days under normoxic conditions. The cells were stained with sulphorhodamine B to measure total cells. The IC50 was determined by interpolation as the compound concentration reducing staining to 50% of controls on the same plate.

[9] = system: CHO-K1; test: Cytotoxicity (MTT) under normoxia, CHO-K1; type: cell-based, Chinese hamster; settings: Cricetulus griseus, CHO-K1, read-out: IC50 CHO-K1
Description: as §3, §4

[10] = system: MCF7; test: Cytotoxicity (MTT) under normoxia, MCF7; type: cell-based; settings: Homo sapiens, MCF7, read-out: IC50 MCF7
Description: as §3, §4

[11] = system: HCT116; test: Cytotoxicity (MTT) under normoxia, HCT116; type: cell-based; settings: Homo sapiens, HCT-116, read-out: IC50 HCT116
Description: as §3, §4

[12] = system: RKO; test: Cytotoxicity (MTT) under normoxia, RKO; type: cell-based; settings: Homo sapiens, read-out: IC50 RKO
Description: as §3, §4

[13] = system: SW480; test: Cytotoxicity (MTT) under normoxia, SW480; type: cell-based; settings: Homo sapiens, SW480, read-out: IC50 SW480
Description: as §3, §4

[14] = system: MRC5; test: Cytotoxicity (MTT) under normoxia, MRC5; type: cell-based; settings: Homo sapiens, MRC5, read-out: IC50 MRC5
Description: as §3, §4

[15] = system: HCT116; test: Cytotoxicity under normoxia and hypoxia (anaerobic chamber, sulphorhodamine B), HCT116; type: cell-based, human; settings: for IC50: Homo sapiens, HCT-116, 4 h exposure, 5 days growth
Description: (§5) We also checked if the designed prodrugs were able to liberate the active alkaloids in hypoxic tumors by testing them under hypoxic conditions using an anaerobic chamber. The three prodrugs 5a–c and their parent alkaloids as well as the reference compounds PR-104A, the parent alcohol form of the phosphate pre-prodrug PR-104, and evofosfamide were tested using the HCT116 and H460 cell lines under both normoxic and hypoxic conditions (Table 5). The prodrugs were much less cytotoxic than the parent drugs, in agreement with our observations using the other cell lines described above (Figure 6).
(§6) The extent to which a prodrug is deactivated relative to its parent drug under normoxic conditions is defined as the Deactivation Ratio (DR). The DR can be simply calculated as DR = IC50 (prodrug)/IC50 (parent drug).
(§7) The efficacy of prodrug activation under hypoxic conditions can be expressed by the Hypoxia Cytotoxicity Ratio (HCR), which can be calculated for a given prodrug as: HCR = normoxic IC50/hypoxic IC50.
as §4

[16] = system: H460; test: Cytotoxicity under normoxia and hypoxia (anaerobic chamber, sulphorhodamine B), H460; type: cell-based, human; settings: for IC50: Homo sapiens, NCI-H460, 4 h exposure, 5 days growth
Description: as §5, §6, §7, §4

COc1cc2c3c(c4cc(OC)c(OC)cc4c2cc1OC)C[N+]1(Cc2c([N+](=O)[O-])ncn2C)CCC[C@H]1C3.[Br-] (stereo partly drawn) [Compound 5b, (13aS)-2,3,6,7-tetramethoxy-10-((1-methyl-4-nitro-1H-imidazol-5-yl)methyl)-10,11,12,13,13a,14-hexahydro-9H-dibenzo[f,h]pyrrolo[1,2-b]isoquinolin-10-ium bromide]
solubility [1]: 162 ± 3 µM | logD [2]: 0.38 ± 0.04 | Permeability (Papp) [3]: <−7 Log [10^−6 cm/s] | fraction unbound [4]: 0.411 | half-life at 1 μM [5]: 73 ± 1.7 h | half-life at 1 μM [6]: 63.3 ± 0.1 h | Kel (elimination rate constant) ([7]; 2 μM): 0.002 ± 0 min⁻¹ | metabolized into the parent drug ([7]; microsomes, 2 μM): less than 1% | half-life at 2 μM ([7]; microsomes): 6.733 ± 0.0533 h | IC50 [8]: 0.95 ± 0.174 µM | IC50 [9]: 3.49 ± 0.843 µM | IC50 [10]: 1.5 ± 0.128 µM | IC50 [11]: 3.3 ± 1.56 µM | IC50 [12]: 4.06 ± 0.181 µM | IC50 [13]: 7.25 ± 0.49 µM | IC50 [14]: 3.31 ± 0.163 µM | HCR (Hypoxia Cytotoxicity Ratio) [15]: 11.3 | DR (Deactivation Ratio) ([15]; HCT116, normoxia, DR = IC50 (prodrug)/IC50 (parent drug)): 689 | IC50 ([15]; HCT116, hypoxia, read-out: IC50 (Hypoxia)): 1.46 ± 0.411 µM | IC50 ([15]; HCT116, normoxia, read-out: IC50 (Normoxia)): 4.49 ± 0.698 µM | HCR (Hypoxia Cytotoxicity Ratio) [16]: 24 | DR (Deactivation Ratio) ([16]; H460, normoxia, DR = IC50 (prodrug)/IC50 (parent drug)): 719 | IC50 ([16]; H460, hypoxia, read-out: IC50 (Hypoxia)): 3.22 ± 1.07 µM | IC50 ([16]; H460, normoxia, read-out: IC50 (Normoxia)): 77.6 µM | melting point: 165 to 167 °C
